Assay results published in patent US10174035B2, “6-morpholinyl-2-pyrazolyl-9H-purine derivatives and their use as PI3K inhibitors” (Daiichi Sankyo Company, Limited, priority 2015, dated 2019).

The molecules below were run against recombinant PI3K δ enzyme (Homo sapiens (Human), UniProt O00329) (assay: In vitro enzyme assay (Kinase-Glo luminescent kinase assay), PI3Kδ).
Type: biochemical
Procedure: The Kinase-Glo luminescent kinase assay kit (from Promega) was used to measure kinase activity. In this assay, amount of ATP remaining in solution following a kinase reaction is measured. The effect of compounds on PI3Kδ inhibition was carried out by adding 2.29 μg/ml of recombinant PI3K δ enzyme (Proteros, Germany) to reaction mixture containing assay buffer (50 mM HEPES, pH 7.4, 50 mM NaCl, 0.05% CHAPS) supplemented with 10 mM MgCl2, 5 mM DTT, 60 μM Phosphatidyl inositol bisphosphate (PIP2) and 10 μM ATP in the absence or presence of different concentrations of the compounds in a final volume of 15 μl/well, in a 384 well plate. The reaction mixture was incubated for 2 hours at room temperature. At the end of incubation period the equal volume of Kinase-Glo plus (Promega, V3772), was added per well and the luminescence was measured after incubating for 10 minutes at room temperature in dark. Results were calculated by measuring the luminescence units of test samples to blanks containing no enzyme.
The compounds of the present invention were tested for their selectivity for PI3Kδ over PI3Kα, PI3Kβ and PI3Kγ following the above assay using specific recombinant enzymes (Proteros, Germany) for each kinase. Assay condition of kinase assay (PI3Kα, PI3Kβ, PI3Kγ and PI3Kδ) was as follows. Enzyme: 2.29 μg/mL; ATP: 10 μM; PIP2 substrate: 60 μM and Reaction Time: 2 hours.

Chain of recombinant PI3K δ enzyme (O00329 whole entry, species assumed): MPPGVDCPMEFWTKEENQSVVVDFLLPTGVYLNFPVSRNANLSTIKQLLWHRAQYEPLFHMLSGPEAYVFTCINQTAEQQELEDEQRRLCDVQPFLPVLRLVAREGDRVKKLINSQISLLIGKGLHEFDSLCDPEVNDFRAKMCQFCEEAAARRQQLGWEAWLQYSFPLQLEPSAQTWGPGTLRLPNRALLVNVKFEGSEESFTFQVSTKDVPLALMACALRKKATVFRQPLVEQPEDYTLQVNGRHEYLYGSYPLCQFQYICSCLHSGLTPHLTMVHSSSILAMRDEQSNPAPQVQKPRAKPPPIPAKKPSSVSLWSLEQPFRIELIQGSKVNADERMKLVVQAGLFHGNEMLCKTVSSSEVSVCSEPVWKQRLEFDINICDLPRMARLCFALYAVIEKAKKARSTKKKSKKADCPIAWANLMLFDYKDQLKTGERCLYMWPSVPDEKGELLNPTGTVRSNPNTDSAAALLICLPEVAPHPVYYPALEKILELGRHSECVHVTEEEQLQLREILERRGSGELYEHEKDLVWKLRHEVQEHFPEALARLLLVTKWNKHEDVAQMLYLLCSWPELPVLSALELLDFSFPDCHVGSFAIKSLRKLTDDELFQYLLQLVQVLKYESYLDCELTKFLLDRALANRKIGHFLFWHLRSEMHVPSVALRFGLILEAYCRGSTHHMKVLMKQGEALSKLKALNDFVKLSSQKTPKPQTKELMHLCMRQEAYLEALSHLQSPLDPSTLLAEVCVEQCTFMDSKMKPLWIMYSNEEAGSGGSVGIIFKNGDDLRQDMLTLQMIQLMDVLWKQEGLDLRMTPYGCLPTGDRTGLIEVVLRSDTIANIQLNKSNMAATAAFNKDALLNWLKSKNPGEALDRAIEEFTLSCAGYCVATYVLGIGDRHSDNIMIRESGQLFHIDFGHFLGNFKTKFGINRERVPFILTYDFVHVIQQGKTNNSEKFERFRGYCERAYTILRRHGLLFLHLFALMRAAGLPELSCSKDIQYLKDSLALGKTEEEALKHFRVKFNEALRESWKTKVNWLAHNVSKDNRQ
Chain of recombinant PI3K δ enzyme (P27986 whole entry partner, species assumed): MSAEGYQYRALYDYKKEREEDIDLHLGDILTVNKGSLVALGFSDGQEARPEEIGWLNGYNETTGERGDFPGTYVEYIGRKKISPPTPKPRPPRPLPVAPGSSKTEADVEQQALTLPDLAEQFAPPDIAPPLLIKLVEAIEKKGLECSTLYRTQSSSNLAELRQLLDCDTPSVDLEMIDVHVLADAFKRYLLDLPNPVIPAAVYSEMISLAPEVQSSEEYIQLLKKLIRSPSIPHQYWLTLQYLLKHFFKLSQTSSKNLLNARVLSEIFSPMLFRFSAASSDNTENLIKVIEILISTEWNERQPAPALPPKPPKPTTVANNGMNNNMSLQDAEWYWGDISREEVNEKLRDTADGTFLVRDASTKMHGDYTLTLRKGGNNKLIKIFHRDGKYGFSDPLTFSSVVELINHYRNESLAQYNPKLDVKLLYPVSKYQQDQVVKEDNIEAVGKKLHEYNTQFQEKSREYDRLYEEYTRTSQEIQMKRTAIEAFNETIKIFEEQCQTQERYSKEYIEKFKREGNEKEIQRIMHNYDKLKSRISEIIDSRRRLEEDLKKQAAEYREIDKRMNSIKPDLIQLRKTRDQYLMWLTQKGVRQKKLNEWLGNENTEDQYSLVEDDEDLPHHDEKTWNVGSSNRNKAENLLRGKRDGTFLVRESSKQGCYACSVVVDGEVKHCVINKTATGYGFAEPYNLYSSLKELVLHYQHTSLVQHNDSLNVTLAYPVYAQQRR

SMILES	IC50 [nM]
CN1CCN(C(=O)c2nc3c(N4CCOCC4)nc(-c4cnn(C)c4)nc3[nH]2)CC1 [compound 46, (4-Methylpiperazin-1-yl)[2-(1-methyl-1H-pyrazol-4-yl)-6-(morpholin-4-yl)-9H-purin-8-yl]methanone]	69
CN1CCC(NC(=O)c2nc3c(N4CCOCC4)nc(-c4cnn(C)c4)nc3[nH]2)CC1 [compound 47, N-(1-Methylpiperidin-4-yl)-2-(1-methyl-1H-pyrazol-4-yl)-6-(morpholin-4-yl)-9H-purine-8-carboxamide]	139
CN(C)C(=O)c1nc2c(N3CCOCC3)nc(-c3cnn(C)c3)nc2[nH]1 [compound 48, N,N-Dimethyl-2-(1-methyl-1H-pyrazol-4-yl)-6-(morpholin-4-yl)-9H-purine-8-carboxamide]	76
Cn1cc(-c2nc(N3CCOCC3)c3nc(C(=O)NC4CCN(Cc5ccccc5)CC4)[nH]c3n2)cn1 [compound 49, N-(1-Benzylpiperidin-4-yl)-2-(1-methyl-1H-pyrazol-4-yl)-6-(morpholin-4-yl)-9H-purine-8-carboxamide]	62
Cn1cc(-c2nc(N3CCOCC3)c3nc(C(=O)N4CCC(CC(=O)O)CC4)[nH]c3n2)cn1 [compound 50, (1-{[2-(1-Methyl-1H-pyrazol-4-yl)-6-(morpholin-4-yl)-9H-purin-8-yl]carbonyl}piperidin-4-yl)acetic acid]	205
CCOC(=O)CC1CCN(C(=O)c2nc3c(N4CCOCC4)nc(-c4cnn(C)c4)nc3[nH]2)CC1 [compound 51, Ethyl (1-{[2-(1-methyl-1H-pyrazol-4-yl)-6-(morpholin-4-yl)-9H-purin-8-yl]carbonyl}piperidin-4-yl)acetate]	56
COCCNC(=O)c1nc2c(N3CCOCC3)nc(-c3cnn(C)c3)nc2[nH]1 [compound 52, N-(2-Methoxyethyl)-2-(1-methyl-1H-pyrazol-4-yl)-6-(morpholin-4-yl)-9H-purine-8-carboxamide]	231
Cn1cc(-c2nc(N3CCOCC3)c3nc(C(=O)N4CCCCC4)[nH]c3n2)cn1 [compound 53, [2-(1-Methyl-1H-pyrazol-4-yl)-6-(morpholin-4-yl)-9H-purin-8-yl](piperidin-1-yl)methanone]	88
CN(C)C1CCN(C(=O)c2nc3c(N4CCOCC4)nc(-c4cnn(C)c4)nc3[nH]2)CC1 [compound 57, [4-(Dimethylamino)piperidin-1-yl][2-(1-methyl-1H-pyrazol-4-yl)-6-(morpholin-4-yl)-9H-purin-8-yl]methanone]	68
CCN(CCN1CCOCC1)C(=O)c1nc2c(N3CCOCC3)nc(-c3cnn(C)c3)nc2[nH]1 [compound 59, N-ethyl-2-(1-methyl-1H-pyrazol-4-yl)-6-(morpholin-4-yl)-N-[2-(morpholin-4-yl)ethyl]-9H-purine-8-carboxamide]	206
CN(CCN1CCOCC1)C(=O)c1nc2c(N3CCOCC3)nc(-c3cnn(C)c3)nc2[nH]1 [compound 60, N-methyl-2-(1-methyl-1H-pyrazol-4-yl)-6-(morpholin-4-yl)-N-[2-(morpholin-4-yl)ethyl]-9H-purine-8-carboxamide]	159
Cn1cc(-c2nc(N3CCOCC3)c3nc(C(=O)N4CC[C@H](O)C4)[nH]c3n2)cn1 [compound 62, [(3S)-3-Hydroxypyrrolidin-1-yl][2-(1-methyl-1H-pyrazol-4-yl)-6-(morpholin-4-yl)-9H-purin-8-yl]methanone]	61
Cn1cc(-c2nc(N3CCOCC3)c3nc(C(=O)NCCCN4CCOCC4)[nH]c3n2)cn1 [compound 63, 2-(1-Methyl-1H-pyrazol-4-yl)-6-(morpholin-4-yl)-N-[3-(morpholin-4-yl)propyl]-9H-purine-8-carboxamide]	21
Cc1n[nH]cc1-c1nc(N2CCOCC2)c2nc(C(=O)N3CCC(N4CCOCC4)CC3)[nH]c2n1 [compound 66, [2-(3-Methyl-1H-pyrazol-4-yl)-6-(morpholin-4-yl)-9H-purin-8-yl][4-(morpholin-4-yl)piperidin-1-yl]methanone]	21
CCN(CCCN1CCOCC1)C(=O)c1nc2c(N3CCOCC3)nc(-c3cnn(C)c3)nc2[nH]1 [compound 69, N-ethyl-2-(1-methyl-1H-pyrazol-4-yl)-6-(morpholin-4-yl)-N-[3-(morpholin-4-yl)propyl]-9H-purine-8-carboxamide]	61
CN1CCN(CCNC(=O)c2nc3c(N4CCOCC4)nc(-c4cnn(C)c4)nc3[nH]2)CC1 [compound 70, N-[2-(4-methylpiperazin-1-yl)ethyl]-2-(1-methyl-1H-pyrazol-4-yl)-6-(morpholin-4-yl)-9H-purine-8-carboxamide]	54
Cc1nn(C)cc1-c1nc(N2CCOCC2)c2nc(C(=O)NCC3(CO)COC3)[nH]c2n1 [compound 71, 2-(1,3-Dimethyl-1H-pyrazol-4-yl)-N-{[3-(hydroxymethyl)oxetan-3-yl]methyl}-6-(morpholin-4-yl)-9H-purine-8-carboxamide]	30
Cn1cc(-c2nc(N3CCOCC3)c3nc(C(=O)NCCCN4CCCC4=O)n(C)c3n2)cn1 [compound 73, 9-Methyl-2-(1-methyl-1H-pyrazol-4-yl)-6-(morpholin-4-yl)-N-[3-(2-oxopyrrolidin-1-yl)propyl]-9H-purine-8-carboxamide]	60
O=C(c1nc2c(N3CCOCC3)nc(-c3cn[nH]c3)nc2[nH]1)N1CCC(N2CCOCC2=O)CC1 [compound 74, 4-(1-{[6-(Morpholin-4-yl)-2-(1H-pyrazol-4-yl)-9H-purin-8-yl]carbonyl}piperidin-4-yl)morpholin-3-one]	8
Cn1cc(-c2nc(N3CCOCC3)c3nc(C(=O)NCC(C)(C)CO)[nH]c3n2)cn1 [compound 76, N-(3-hydroxy-2,2-dimethylpropyl)-2-(1-methyl-1H-pyrazol-4-yl)-6-(morpholin-4-yl)-9H-purine-8-carboxamide]	101
Cn1cc(-c2nc3[nH]c(C(=O)N4CCN5C(=O)COC[C@H]5C4)nc3c(N3CCOCC3)c2F)cn1 [compound 80, (9aR)-8-{[6-Fluoro-5-(1-methyl-1H-pyrazol-4-yl)-7-(morpholin-4-yl)-3H-imidazo[4,5-b]pyridin-2-yl]carbonyl}hexahydropyrazino[2,1-c][1,4]oxazin-4(3H)-one]	194
Cn1cc(-c2nc3[nH]c(C(=O)N4CCN(C5CCOCC5)CC4)nc3c(N3CCOCC3)c2F)cn1 [compound 81, [6-Fluoro-5-(1-methyl-1H-pyrazol-4-yl)-7-(morpholin-4-yl)-3H-imidazo[4,5-b]pyridin-2-yl][4-(tetrahydro-2H-pyran-4-yl)piperazin-1-yl]methanone]	7
Cc1nn(C)cc1-c1nc2c(nc(C(=O)N3CCC(N4CCOCC4)CC3)n2CC2CC2)c(N2CCOCC2)c1F [compound 83, [3-(Cyclopropylmethyl)-5-(1,3-dimethyl-1H-pyrazol-4-yl)-6-fluoro-7-(morpholin-4-yl)-3H-imidazo[4,5-b]pyridin-2-yl][4-(morpholin-4-yl)piperidin-1-yl]methanone]	92
Cc1nn(C)c(C)c1-c1nc2[nH]c(C(=O)N3CCC(N4CCOCC4)CC3)nc2c(N2CCOCC2)c1C [compound 88, [6-Methyl-7-(morpholin-4-yl)-5-(1,3,5-trimethyl-1H-pyrazol-4-yl)-3H-imidazo[4,5-b]pyridin-2-yl][4-(morpholin-4-yl)piperidin-1-yl]methanone]	365
Cc1nn(C)cc1-c1nc2[nH]c(C(=O)N3CCC(N4CCOCC4)CC3)nc2c(N2CCOCC2)c1C [compound 89, [5-(1,3-Dimethyl-1H-pyrazol-4-yl)-6-methyl-7-(morpholin-4-yl)-3H-imidazo[4,5-b]pyridin-2-yl][4-(morpholin-4-yl)piperidin-1-yl]methanone]	46
Cc1c(-c2cnn(C)c2)nc2[nH]c(C(=O)N3CCC(N4CCOCC4)CC3)nc2c1N1CCOCC1 [compound 90, [6-Methyl-5-(1-methyl-1H-pyrazol-4-yl)-7-(morpholin-4-yl)-3H-imidazo[4,5-b]pyridin-2-yl][4-(morpholin-4-yl)piperidin-1-yl]methanone]	188
Cc1nn(C)cc1-c1nc2[nH]c(C(=O)N3CCC(N4CCOCC4)CC3)nc2c(N2CCOCC2)c1Cl [compound 91, [6-Chloro-5-(1,3-dimethyl-1H-pyrazol-4-yl)-7-(morpholin-4-yl)-3H-imidazo[4,5-b]pyridin-2-yl][4-(morpholin-4-yl)piperidin-1-yl]methanone]	31
Cn1cc(-c2nc3[nH]c(C(=O)N4CCC(N5CCOCC5)CC4)nc3c(N3CCOCC3)c2Cl)cn1 [compound 92, [6-Chloro-5-(1-methyl-1H-pyrazol-4-yl)-7-(morpholin-4-yl)-3H-imidazo[4,5-b]pyridin-2-yl][4-(morpholin-4-yl)piperidin-1-yl]methanone]	163
Cc1c(-c2nc3[nH]c(C(=O)N4CCC(N5CCOCC5)CC4)nc3c(N3CCOCC3)c2F)cnn1C [compound 95, [5-(1,5-Dimethyl-1H-pyrazol-4-yl)-6-fluoro-7-(morpholin-4-yl)-3H-imidazo[4,5-b]pyridin-2-yl][4-(morpholin-4-yl)piperidin-1-yl]methanone]	202
CN(C)C1CCN(C(=O)c2nc3c(N4CCOCC4)cc(-c4cnn(C)c4)nc3n2C)CC1 [compound 100, [4-(Dimethylamino)piperidin-1-yl][3-methyl-5-(1-methyl-1H-pyrazol-4-yl)-7-(morpholin-4-yl)-3H-imidazo[4,5-b]pyridin-2-yl]methanone]	64
